In brackets after ≈: the same amount, converted by molar mass. Read-outs that look alike come from different tables or passages of the source.
Assays:
[1] = test system: N. gonorrhoeae clinical isolates (n = 38); assay: microbe, parasite or virus in culture; assay type: cell-based, Neisseria gonorrhoeae; details: for MIC50 / MIC90: Neisseria gonorrhoeae
Protocol: (§1) The bacterial reference strains used in this study were purchased from ATCC (American Type Culture Collection) via LGC Standards (Middlesex, UK). […] Clinical MDR isolates were provided by Aptuit, the IHMA Europa Sàrl repository (Epalinges, Switzerland) and the Statens Serum Institute (Copenhagen, Denmark).
(§2) MICs were determined by the broth microdilution method (the agar dilution method was used only for N. gonorrhoeae) according to CLSI guidelines.
(§3) The results obtained using clinical isolates are reported as MIC50 and MIC90 values.

E. coli DNA gyrase = target: T1, E. coli DNA gyrase (Escherichia coli, UniProt P0AES4); assay: E. coli DNA gyrase supercoiling gel assay; assay type: biochemical
T1 construct: purchased Inspiralis (Norwich, UK)
Protocol: (§4) S. aureus and E. coli DNA gyrase supercoiling and topo IV decatenation assay kits, as well as human topoisomerase II decatenation assay kits, were provided by Inspiralis (Norwich, UK). Assays were performed according to the manufacturer’s instructions. The compounds were serially diluted (1:3 dilutions starting from a 300 μM final concentration) and assayed in a reaction mixture to obtain concentration-response curves in two different replicate experiments. The final concentration of DMSO in the assays was 1% (v/v). The reactions were terminated by the addition of 30 μl chloroform/isoamyl alcohol (26:1) and 30 μl Stop Dye (40% sucrose, 100 mM Tris HCl pH 7.5, 1 mM EDTA, 0.5 μg/ml bromophenol blue), after which the samples were loaded onto a 1.0% TAE ([…]) gel that was then run at 80 V for 2 hours. DNA bands were visualized by ethidium bromide staining the gel for 10 minutes, which was then destained for 10 minutes in water and analysed using gel documentation equipment (Syngene, Cambridge, UK). The DNA in each band was quantitated using Syngene Gene Tools software. Raw gel data (fluorescent band volumes) were converted by the software to percentages of the control (the fully supercoiled or decatenated DNA band). […] The global curve fit non-linear regression tool was used to calculate the IC50 values. The results are expressed as the average values obtained after calculating the IC50 from each replicate run.

[2] = test system: A. baumannii clinical isolates (n = 10); assay: microbe, parasite or virus in culture; assay type: cell-based, Acinetobacter baumannii; details: for MIC50 / MIC90: Acinetobacter baumannii
Protocol: as §1, §2, §3

E. coli TolC- mutant = assay: microbe, parasite or virus in culture; assay type: cell-based; details: Escherichia coli
Protocol: as §1, §2

Human Topoisomerase II = target: T2, Human Topoisomerase II (Homo sapiens, UniProt P11388); assay: Human topoisomerase II decatenation gel assay; assay type: biochemical
T2 construct: purchased Inspiralis (Norwich, UK)
T2 sequence (P11388 whole entry): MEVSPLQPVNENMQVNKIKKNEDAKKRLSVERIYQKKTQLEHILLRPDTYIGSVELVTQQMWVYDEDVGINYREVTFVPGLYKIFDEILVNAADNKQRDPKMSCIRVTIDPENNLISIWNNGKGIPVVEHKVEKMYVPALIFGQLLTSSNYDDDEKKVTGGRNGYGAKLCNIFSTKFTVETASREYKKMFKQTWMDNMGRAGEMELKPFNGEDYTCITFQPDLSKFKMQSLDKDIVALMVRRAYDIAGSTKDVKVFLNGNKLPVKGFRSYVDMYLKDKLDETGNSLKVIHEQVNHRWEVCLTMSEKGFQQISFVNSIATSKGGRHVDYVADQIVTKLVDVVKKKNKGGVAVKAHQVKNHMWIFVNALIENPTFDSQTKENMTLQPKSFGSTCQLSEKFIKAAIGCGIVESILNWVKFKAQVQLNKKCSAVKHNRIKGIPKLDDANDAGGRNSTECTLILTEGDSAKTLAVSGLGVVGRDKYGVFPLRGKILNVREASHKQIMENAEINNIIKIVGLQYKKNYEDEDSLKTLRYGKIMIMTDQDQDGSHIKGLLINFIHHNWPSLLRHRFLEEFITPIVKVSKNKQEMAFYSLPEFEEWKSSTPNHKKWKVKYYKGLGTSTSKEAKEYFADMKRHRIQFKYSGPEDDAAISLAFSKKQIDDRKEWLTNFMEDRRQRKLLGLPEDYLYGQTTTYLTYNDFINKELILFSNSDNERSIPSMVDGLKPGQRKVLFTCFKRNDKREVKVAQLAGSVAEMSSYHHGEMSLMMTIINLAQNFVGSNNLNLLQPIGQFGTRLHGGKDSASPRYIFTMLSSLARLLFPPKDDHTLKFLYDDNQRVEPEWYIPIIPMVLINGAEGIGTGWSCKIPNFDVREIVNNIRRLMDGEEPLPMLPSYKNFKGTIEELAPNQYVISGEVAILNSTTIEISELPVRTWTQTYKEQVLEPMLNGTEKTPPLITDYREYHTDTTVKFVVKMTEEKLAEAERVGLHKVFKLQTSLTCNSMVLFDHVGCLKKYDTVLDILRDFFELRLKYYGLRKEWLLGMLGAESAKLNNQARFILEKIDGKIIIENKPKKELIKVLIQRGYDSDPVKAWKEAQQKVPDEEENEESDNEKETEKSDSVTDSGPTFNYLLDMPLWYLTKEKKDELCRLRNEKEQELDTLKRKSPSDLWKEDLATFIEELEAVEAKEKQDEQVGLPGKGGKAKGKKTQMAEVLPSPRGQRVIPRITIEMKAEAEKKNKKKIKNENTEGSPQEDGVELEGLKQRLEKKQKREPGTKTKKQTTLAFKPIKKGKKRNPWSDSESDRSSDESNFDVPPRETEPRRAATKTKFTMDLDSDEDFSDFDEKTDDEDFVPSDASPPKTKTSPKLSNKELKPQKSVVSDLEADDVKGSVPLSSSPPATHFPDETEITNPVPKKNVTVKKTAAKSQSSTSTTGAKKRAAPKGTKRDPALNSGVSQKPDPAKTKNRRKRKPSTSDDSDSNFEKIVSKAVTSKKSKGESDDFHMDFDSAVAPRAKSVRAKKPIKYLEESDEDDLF
Protocol: as §4

S. pneumoniae ATCC 49619 = assay: MIC, broth microdilution; assay type: cell-based; details: Streptococcus pneumoniae, ATCC49619; S. pneumoniae ATCC 49619, ciprofloxacin-susceptible
Protocol: as §2

E. faecalis ATCC 29212 = assay: MIC, broth microdilution; assay type: cell-based; details: Enterococcus faecalis, ATCC29212; E. faecalis ATCC 29212, ciprofloxacin-susceptible
Protocol: as §2

P. aeruginosa ATCC 27853 = assay: MIC, broth microdilution; assay type: cell-based; details: Pseudomonas aeruginosa, ATCC27853; P. aeruginosa ATCC 27853, ciprofloxacin-susceptible
Protocol: as §2

S. aureus BAA-1720 = assay: MIC, broth microdilution; assay type: cell-based; details: Staphylococcus aureus, BAA1720; S. aureus BAA-1720, ciprofloxacin-resistant
Protocol: as §2

[3] = test system: K. pneumoniae ATCC 700603; assay: MIC, broth microdilution; assay type: cell-based; details: Klebsiella pneumoniae, ATCC700603; K. pneumoniae ATCC 700603, ciprofloxacin-susceptible
Protocol: as §2

E. coli ATCC 25922 = assay: MIC, broth microdilution; assay type: cell-based; details: Escherichia coli, ATCC25922; E. coli ATCC 25922, ciprofloxacin-susceptible
Protocol: as §2

H. influenzae ATCC 49766 = assay: MIC, broth microdilution; assay type: cell-based; details: Haemophilus influenzae, ATCC49766; H. influenzae ATCC 49766, ciprofloxacin-susceptible
Protocol: as §2

N. gonorrhoeae WHO N = assay: MIC, agar dilution; assay type: cell-based; details: Neisseria gonorrhoeae, ciprofloxacin-resistant
Protocol: as §2

N. gonorrhoeae WHO L = assay: MIC, agar dilution; assay type: cell-based; details: Neisseria gonorrhoeae, ciprofloxacin-resistant
Protocol: as §2

[4] = test system: N. gonorrhoeae ATCC 49226; assay: MIC, agar dilution; assay type: cell-based; details: Neisseria gonorrhoeae, ATCC49226; N. gonorrhoeae ATCC 49226, ciprofloxacin-susceptible
Protocol: as §2

N. gonorrhoeae WHO K = assay: MIC, agar dilution; assay type: cell-based; details: Neisseria gonorrhoeae, ciprofloxacin-resistant
Protocol: as §2

[5] = test system: N. gonorrhoeae ATCC 19424; assay: MIC, agar dilution; assay type: cell-based; details: Neisseria gonorrhoeae, ATCC19424; N. gonorrhoeae ATCC 19424, ciprofloxacin-susceptible
Protocol: as §2

[6] = target: T3, S. aureus Topoisomerase IV (Staphylococcus aureus, UniProt P0C1U9); assay: S. aureus topoisomerase IV decatenation gel assay; assay type: biochemical
T3 construct: purchased Inspiralis (Norwich, UK)
T3 sequence (P0C1S7 whole entry): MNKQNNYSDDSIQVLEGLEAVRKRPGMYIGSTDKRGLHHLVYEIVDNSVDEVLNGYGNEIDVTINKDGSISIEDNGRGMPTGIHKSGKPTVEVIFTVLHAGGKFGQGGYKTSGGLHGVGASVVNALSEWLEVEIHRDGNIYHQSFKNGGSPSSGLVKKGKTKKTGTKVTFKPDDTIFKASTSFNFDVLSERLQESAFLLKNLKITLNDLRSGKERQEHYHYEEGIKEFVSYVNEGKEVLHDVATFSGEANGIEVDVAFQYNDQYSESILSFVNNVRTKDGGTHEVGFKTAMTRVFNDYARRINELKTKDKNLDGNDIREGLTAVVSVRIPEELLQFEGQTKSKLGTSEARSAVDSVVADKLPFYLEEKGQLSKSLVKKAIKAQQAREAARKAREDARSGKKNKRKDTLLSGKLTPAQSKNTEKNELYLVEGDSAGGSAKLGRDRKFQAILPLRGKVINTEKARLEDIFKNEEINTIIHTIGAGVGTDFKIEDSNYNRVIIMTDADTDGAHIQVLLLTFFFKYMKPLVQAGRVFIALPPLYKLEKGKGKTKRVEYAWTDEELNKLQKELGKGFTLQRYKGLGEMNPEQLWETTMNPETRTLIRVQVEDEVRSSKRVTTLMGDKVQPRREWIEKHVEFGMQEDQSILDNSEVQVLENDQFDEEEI
T3 sequence (P0C1U9 whole entry): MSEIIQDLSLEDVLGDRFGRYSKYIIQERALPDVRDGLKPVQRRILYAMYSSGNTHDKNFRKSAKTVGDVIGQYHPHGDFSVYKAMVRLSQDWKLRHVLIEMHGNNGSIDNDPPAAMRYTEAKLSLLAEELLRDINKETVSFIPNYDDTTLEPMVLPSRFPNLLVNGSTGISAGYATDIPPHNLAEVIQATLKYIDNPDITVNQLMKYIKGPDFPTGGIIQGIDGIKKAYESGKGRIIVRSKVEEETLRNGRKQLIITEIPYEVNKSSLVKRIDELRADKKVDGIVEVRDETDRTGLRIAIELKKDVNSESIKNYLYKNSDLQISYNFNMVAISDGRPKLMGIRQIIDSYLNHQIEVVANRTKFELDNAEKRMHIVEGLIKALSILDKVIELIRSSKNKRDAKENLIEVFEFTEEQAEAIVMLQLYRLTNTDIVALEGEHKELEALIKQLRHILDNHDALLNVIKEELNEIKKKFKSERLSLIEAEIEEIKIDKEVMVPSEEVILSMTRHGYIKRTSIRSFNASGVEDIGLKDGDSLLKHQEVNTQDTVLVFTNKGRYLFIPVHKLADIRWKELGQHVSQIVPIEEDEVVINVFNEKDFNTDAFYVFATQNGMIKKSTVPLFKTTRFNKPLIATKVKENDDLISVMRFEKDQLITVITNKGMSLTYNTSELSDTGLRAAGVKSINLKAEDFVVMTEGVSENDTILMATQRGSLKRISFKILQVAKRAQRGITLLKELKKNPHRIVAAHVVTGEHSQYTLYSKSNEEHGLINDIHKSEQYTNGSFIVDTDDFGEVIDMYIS
Protocol: as §4

[7] = test system: E. faecalis clinical isolates (n = 12) vanA (6)/vanB (6); assay: MIC, multidrug-resistant clinical isolates; assay type: cell-based; details: Enterococcus faecalis; for MIC: read-out: MIC range
Protocol: as §1, §2, §3

[8] = test system: E. faecium clinical isolates (n = 12) vanA (6)/vanB (6); assay: MIC, multidrug-resistant clinical isolates; assay type: cell-based; details: Enterococcus faecium; for MIC: read-out: MIC range
Protocol: as §1, §2, §3

S. aureus ATCC 29213 = assay: MIC, broth microdilution; assay type: cell-based, Staphylococcus aureus; details: for MIC: Staphylococcus aureus
Protocol: as §2

E. coli Topoisomerase IV = target: T4, E. coli Topoisomerase IV (Escherichia coli, UniProt P0AFI2); assay: E. coli topoisomerase IV decatenation gel assay; assay type: biochemical
T4 construct: purchased Inspiralis (Norwich, UK)
T4 sequence (P20083 whole entry): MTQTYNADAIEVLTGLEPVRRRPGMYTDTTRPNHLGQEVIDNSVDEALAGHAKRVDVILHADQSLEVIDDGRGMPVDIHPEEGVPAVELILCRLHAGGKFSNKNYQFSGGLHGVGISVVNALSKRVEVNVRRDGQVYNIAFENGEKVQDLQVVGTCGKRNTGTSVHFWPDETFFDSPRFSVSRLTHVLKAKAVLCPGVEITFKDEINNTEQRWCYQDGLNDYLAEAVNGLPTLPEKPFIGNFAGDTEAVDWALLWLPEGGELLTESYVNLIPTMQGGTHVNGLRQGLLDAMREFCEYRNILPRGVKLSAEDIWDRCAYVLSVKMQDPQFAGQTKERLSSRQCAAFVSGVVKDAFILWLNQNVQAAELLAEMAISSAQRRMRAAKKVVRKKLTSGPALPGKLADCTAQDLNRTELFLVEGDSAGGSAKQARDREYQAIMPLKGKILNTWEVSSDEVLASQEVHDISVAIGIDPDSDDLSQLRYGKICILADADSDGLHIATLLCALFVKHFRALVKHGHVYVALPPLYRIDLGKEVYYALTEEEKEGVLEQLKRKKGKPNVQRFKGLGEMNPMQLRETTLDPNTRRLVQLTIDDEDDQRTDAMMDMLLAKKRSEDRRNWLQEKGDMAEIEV
T4 sequence (P0AFI2 whole entry): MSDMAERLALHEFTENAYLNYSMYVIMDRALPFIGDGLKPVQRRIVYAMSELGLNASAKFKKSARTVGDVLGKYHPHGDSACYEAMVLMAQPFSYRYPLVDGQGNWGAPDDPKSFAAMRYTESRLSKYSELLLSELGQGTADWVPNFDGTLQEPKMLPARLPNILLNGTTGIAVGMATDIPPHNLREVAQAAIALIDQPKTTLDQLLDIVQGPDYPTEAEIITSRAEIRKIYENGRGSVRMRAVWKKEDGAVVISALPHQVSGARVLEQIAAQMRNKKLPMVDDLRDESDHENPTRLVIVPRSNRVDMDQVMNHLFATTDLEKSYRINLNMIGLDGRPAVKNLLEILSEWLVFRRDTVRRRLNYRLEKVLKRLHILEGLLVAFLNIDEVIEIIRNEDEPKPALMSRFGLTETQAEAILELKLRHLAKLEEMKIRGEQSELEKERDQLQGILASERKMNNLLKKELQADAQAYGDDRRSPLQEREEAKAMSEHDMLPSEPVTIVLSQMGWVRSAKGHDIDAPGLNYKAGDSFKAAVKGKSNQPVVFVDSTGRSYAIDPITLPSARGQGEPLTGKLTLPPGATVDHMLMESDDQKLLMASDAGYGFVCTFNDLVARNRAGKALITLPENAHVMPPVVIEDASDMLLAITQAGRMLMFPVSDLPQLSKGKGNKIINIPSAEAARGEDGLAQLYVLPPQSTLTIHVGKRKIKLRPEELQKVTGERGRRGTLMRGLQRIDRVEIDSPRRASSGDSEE
Protocol: as §4

S. aureus DNA gyrase = target: T5, S. aureus DNA gyrase (Staphylococcus aureus, UniProt P20831); assay: S. aureus DNA gyrase supercoiling gel assay; assay type: biochemical
T5 construct: purchased Inspiralis (Norwich, UK)
Protocol: as §4

[9] = average of two replicate experiments, read-out: IC50 Human Topoisomerase II decatenation (average)
[10] = replicate Assay 1, read-out: IC50 Human Topoisomerase II (TopoII) decatenation, Assay 1
[11] = replicate Assay 2, read-out: IC50 Human Topoisomerase II (TopoII) decatenation, Assay 2
[12] = replicate Assay 1, read-out: IC50 S. aureus Topoisomerase IV decatenation, Assay 1
[13] = replicate Assay 2, read-out: IC50 S. aureus Topoisomerase IV decatenation, Assay 2
[14] = ATCC29213, S. aureus ATCC 29213, ciprofloxacin-susceptible
[15] = ATCC29213, S. aureus ATCC29213, ref strain, S4 File
[16] = replicate Assay 1, read-out: IC50 S.aureus gyrase Supercoiling, Assay 1
[17] = replicate Assay 2, read-out: IC50 S.aureus gyrase Supercoiling, Assay 2

Structure (SMILES): O=C1COc2ncc(F)cc2N1[C@H]1CC[C@H](NCc2cc3c(=O)oc4ccc(F)cc4c3[nH]2)CC1 [Compound 1, 8-fluoro-2-({[trans-4-(7-fluoro-2-oxo-2,3-dihydro-1H-pyrido[2,3-b][1,4]oxazin-1-yl)cyclohexyl]amino}methyl)[1]benzopyrano[4,3-b]pyrrol-4(1H)-one]
- MIC range [1]: 0.016 to 0.12 µg/mL
- MIC50 [1]: 0.12 µg/mL (≈ 0.25 µM)
- MIC90 [1]: 0.12 µg/mL (≈ 0.25 µM)
- IC50 (E. coli DNA gyrase; average of two replicate experiments, read-out: IC50 E. coli Gyrase Supercoiling (average)): 250 nM
- IC50 (E. coli DNA gyrase; replicate Assay 1, read-out: IC50 E. coli gyrase Supercoiling, Assay 1): 340 nM
- IC50 (E. coli DNA gyrase; replicate Assay 2, read-out: IC50 E. coli gyrase Supercoiling, Assay 2): 160 nM
- MIC range [2]: ≤0.06 to 0.12 µg/mL
- MIC50 [2]: 0.12 µg/mL (≈ 0.25 µM)
- MIC90 [2]: 0.12 µg/mL (≈ 0.25 µM)
- MIC (E. coli TolC- mutant): ≤ 0.016 µg/mL
- IC50 (Human Topoisomerase II; [9]): 98000 nM
- IC50 (Human Topoisomerase II; [10]): 96000 nM
- IC50 (Human Topoisomerase II; [11]): 99000 nM
- MIC (S. pneumoniae ATCC 49619): 0.5 µg/mL (≈ 1.04 µM)
- MIC (E. faecalis ATCC 29212): 2 µg/mL (≈ 4.16 µM)
- MIC (P. aeruginosa ATCC 27853): 2 µg/mL (≈ 4.16 µM)
- MIC (S. aureus BAA-1720): 0.5 µg/mL (≈ 1.04 µM)
- MIC [3]: 4 µg/mL (≈ 8.33 µM)
- MIC (E. coli ATCC 25922): 0.5 µg/mL (≈ 1.04 µM)
- MIC (H. influenzae ATCC 49766): 0.25 µg/mL (≈ 0.52 µM)
- MIC (N. gonorrhoeae WHO N): 0.06 µg/mL (≈ 0.125 µM)
- MIC (N. gonorrhoeae WHO L): 0.12 µg/mL (≈ 0.25 µM)
- MIC [4]: 0.06 µg/mL (≈ 0.125 µM)
- MIC (N. gonorrhoeae WHO K): 0.12 µg/mL (≈ 0.25 µM)
- MIC [5]: ≤ 0.06 µg/mL
- IC50 [6]: 2250 nM
- IC50 [6, 12]: 2200 nM
- IC50 [6, 13]: 2300 nM
- MIC50 [7]: 0.03 µg/mL (≈ 0.0624 µM)
- MIC90 [7]: 0.25 µg/mL (≈ 0.52 µM)
- MIC [7]: 0.03 to 0.25 µg/mL (≈ 0.0624 to 0.52 µM)
- MIC50 [8]: 1 µg/mL (≈ 2.08 µM)
- MIC90 [8]: 2 µg/mL (≈ 4.16 µM)
- MIC [8]: 0.03 to 16 µg/mL (≈ 0.0624 to 33.3 µM)
- MIC (S. aureus ATCC 29213; [14]): 0.25 µg/mL (≈ 0.52 µM)
- MIC (S. aureus ATCC 29213; [15]): 0.25 µg/mL (≈ 0.52 µM)
- IC50 (E. coli Topoisomerase IV; average of two replicate experiments, read-out: IC50 E. coli Topoisomerase IV decatenation (average)): 1380 nM
- IC50 (E. coli Topoisomerase IV; replicate Assay 1, read-out: IC50 E. coli Topoisomerase IV decatenation, Assay 1): 1350 nM
- IC50 (E. coli Topoisomerase IV; replicate Assay 2, read-out: IC50 E. coli Topoisomerase IV decatenation, Assay 2): 1420 nM
- IC50 (S. aureus DNA gyrase; IC50 S. aureus Gyrase Supercoiling (average), average of two replicate experiments): 280 nM
- IC50 (S. aureus DNA gyrase; [16]): 250 nM
- IC50 (S. aureus DNA gyrase; [17]): 310 nM

Structure (SMILES): Cl.N#Cc1ccc2ccc(=O)n([C@H]3CC[C@H](NCc4cc5c(=O)oc6ccc(F)cc6c5[nH]4)CC3)c2c1 [Compound 2, 1-(trans-4-{[(8-fluoro-4-oxo-1,4-dihydro[1]benzopyrano[4,3-b]pyrrol-2-yl)methyl]amino}cyclohexyl)-2-oxo-1,2-dihydroquinoline-7-carbonitrile hydrochloride]
- MIC range [1]: 0.004 to 0.12 µg/mL
- MIC50 [1]: 0.06 µg/mL
- MIC90 [1]: 0.12 µg/mL
- IC50 (E. coli DNA gyrase; IC50 E. coli Gyrase Supercoiling (average), average of two replicate experiments): 50 nM
- IC50 (E. coli DNA gyrase; IC50 E. coli gyrase Supercoiling, Assay 1, replicate Assay 1): 40 nM
- IC50 (E. coli DNA gyrase; IC50 E. coli gyrase Supercoiling, Assay 2, replicate Assay 2): 50 nM
- MIC range [2]: ≤0.06 to 0.12 µg/mL
- MIC50 [2]: ≤ 0.06 µg/mL
- MIC90 [2]: 0.12 µg/mL
- MIC (E. coli TolC- mutant): ≤ 0.016 µg/mL
- IC50 (Human Topoisomerase II; [9]): 6000 nM
- IC50 (Human Topoisomerase II; [10]): 6000 nM
- IC50 (Human Topoisomerase II; [11]): 7000 nM
- MIC (S. pneumoniae ATCC 49619): ≤ 0.06 µg/mL
- MIC (E. faecalis ATCC 29212): 0.25 µg/mL
- MIC (P. aeruginosa ATCC 27853): 2 µg/mL
- MIC (S. aureus BAA-1720): 0.016 µg/mL
- MIC [3]: > 8 µg/mL
- MIC (E. coli ATCC 25922): 0.5 µg/mL
- MIC (H. influenzae ATCC 49766): 0.5 µg/mL
- MIC (N. gonorrhoeae WHO N): 0.03 µg/mL
- MIC (N. gonorrhoeae WHO L): 0.06 µg/mL
- MIC [4]: 0.06 µg/mL
- MIC (N. gonorrhoeae WHO K): 0.12 µg/mL
- MIC [5]: ≤ 0.06 µg/mL
- IC50 ([6]; average of two replicate experiments, read-out: IC50 S. aureus Topoisomerase IV decatenation (average)): < 100 nM
- IC50 [6, 12]: < 100 nM
- IC50 [6, 13]: < 100 nM
- MIC50 [7]: 0.12 µg/mL
- MIC90 [7]: 0.12 µg/mL
- MIC [7]: 0.06 to 0.12 µg/mL
- MIC50 [8]: 0.12 µg/mL
- MIC90 [8]: 0.25 µg/mL
- MIC [8]: 0.06 to 1 µg/mL
- MIC fold lower than that of ciprofloxacin (S. aureus ATCC 29213; S. aureus ATCC 29213): approximately 10 fold
- MIC (S. aureus ATCC 29213; [14]): 0.03 µg/mL
- MIC (S. aureus ATCC 29213; [15]): ≤ 0.06 µg/mL
- IC50 (E. coli Topoisomerase IV; IC50 E. coli Topoisomerase IV decatenation (average), average of two replicate experiments): 130 nM
- IC50 (E. coli Topoisomerase IV; IC50 E. coli Topoisomerase IV decatenation, Assay 1, replicate Assay 1): 100 nM
- IC50 (E. coli Topoisomerase IV; IC50 E. coli Topoisomerase IV decatenation, Assay 2, replicate Assay 2): 160 nM
- IC50 (S. aureus DNA gyrase; average of two replicate experiments, read-out: IC50 S. aureus Gyrase Supercoiling (average)): < 100 nM
- IC50 (S. aureus DNA gyrase; [16]): < 100 nM
- IC50 (S. aureus DNA gyrase; [17]): < 100 nM

— publication PMC7029851, “Antibacterial activity of novel dual bacterial DNA type II topoisomerase inhibitors” (PLoS ONE, 2020)
